According to patent US20070280915A1, “Combination Therapies Employing A Composition Comprising A Hmg Coa Reductase Inhibitor And A Vitamin B6 Related Compound” (priority 2003, published 2007):

How the values were obtained:
CYP2C9 = biological target: T1, CYP2C9 (Homo sapiens, UniProt P11712); test: CYP2C9 inhibition assay (substrate MFC); format: in vitro ADME; settings: 0.0169 to […] tested, na = concentration-dependent inhibition not observed
T1 construct: purchased Gentest Corp; host or cells: insect cells (baculovirus)
T1 sequence (P11712 whole entry): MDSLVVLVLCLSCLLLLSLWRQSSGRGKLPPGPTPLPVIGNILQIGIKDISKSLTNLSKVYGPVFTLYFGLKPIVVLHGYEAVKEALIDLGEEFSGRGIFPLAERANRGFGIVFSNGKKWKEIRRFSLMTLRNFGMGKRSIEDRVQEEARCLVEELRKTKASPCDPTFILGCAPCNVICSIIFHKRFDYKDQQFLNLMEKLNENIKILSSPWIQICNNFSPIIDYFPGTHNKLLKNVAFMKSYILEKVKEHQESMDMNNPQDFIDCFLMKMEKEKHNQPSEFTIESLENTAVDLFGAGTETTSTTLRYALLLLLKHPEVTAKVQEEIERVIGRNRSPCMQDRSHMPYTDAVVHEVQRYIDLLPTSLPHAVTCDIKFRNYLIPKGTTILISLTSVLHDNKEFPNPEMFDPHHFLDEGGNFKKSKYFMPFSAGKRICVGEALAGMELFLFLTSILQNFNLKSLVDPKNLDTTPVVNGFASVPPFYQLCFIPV
Method: […]. […] All determinations were performed in duplicate.

[1] = Effect of pyridoxal 5′-phosphate on fluorescence of the metabolic products of the CYP assays
Method: Prior to performing the CYP inhibition assays, the effect of pyridoxal 5′-phosphate on the fluorescence of the metabolic products measured in the assays was evaluated. The fluorescence of metabolite (one concentration, in duplicate) was measured in the absence (0 μM) and presence of 0.457 to 1000 μM pyridoxal 5′-phosphate. The concentrations and metabolic products measured were: 1 μM 3-cyano-7-hydroxycoumarin (CHC), 2.5 μM 7-hydroxycoumarin (7-HC), 2.5 μM 7-hydroxy-4-trifluoromethylcoumarin (HFC), 0.1 μM fluorescein, 10 μM 3-[2-(N,N-diethylamino)ethyl]-7-hydroxy-4-methylcoumarin (AHMC) and 10 μM quinolinol. The concentration of metabolite used was based on the expected maximum concentration of metabolite formed in the CYP inhibition assay (i.e. the concentration of metabolite measured following incubation substrate with the CYP subtype in the absence of an inhibitor). CHC is the fluorescent metabolite measured in the CYP1A2 and CYP2C19 assays. 7-HC is the fluorescent metabolite measured in the CYP2A6 assay, HFC is the fluorescent metabolite measured in the CYP2B6, CYP2C9, CYP2E1 and CYP3A4 (BFC as substrate) assays and fluorescein is the metabolite measured in the CYP2C8 assay. AHMC is the metabolite measured in the CYP2D6 assay and quinolinol is measured in the CYP3A4 (BQ as substrate) assay. […]

[2] = tested on: patients who underwent percutaneous coronary intervention (PCI); test: Randomized double-blinded study of P5P vs placebo in high-risk percutaneous coronary intervention (PCI); format: in vivo
Source text: Inclusion criteria required prior determination for non-urgent PCI of a single-vessel lesion(s) and identification of ≧1 of the following clinical characteristics determining high risk for procedural-related ischemic complications (Califf R M, Abdelmeguid A E, Kuntz R E, Popma J J, Davidson C J, Cohen E A, Kleiman N S, Mahaffey K W, Topol E J, Pepine C J, et al. Myonecrosis after revascularization procedures. J Am Coll Cardiol 1998; 31:241-251; The ESPRIT Investigators. Novel dosing regimen of eptifibatide in planned coronary stent implantation: a randomised, placebo-controlled trial. Lancet 2000; 356:2037-2044): presence of an acute coronary syndrome (chest pain within 48 hours of PCI), recent AMI (≦7 days), diminished epicardial blood flow, angiographic thrombus, ejection fraction ≦30%, or vein graft lesion. In addition to any general contraindication to the PCI procedure or standard concomitant therapies, major exclusion criteria were creatine kinase (CK-MB) elevation above the upper limit of normal immediately before PCI, electrocardiographic evidence of atrial fibrillation or left bundle branch block, or evidence of any clinically significant abnormal laboratory finding (transaminases, bilirubin, or alkaline phosphatase >1.5 times the upper limit of normal or serum creatinine >1.8 mg/dl). Patients with elevated troponin measurements were permitted in the study provided that the peak troponin value was reported >24 hours before scheduled PCI, with documentation of a decreasing value before revascularization. […] Compliance and reasons for discontinued treatments were recorded for all patients.
Study end points and definitions—The primary objective of the study was to evaluate the feasibility of treatment with P5P as a cardioprotective agent in high-risk elective PCI. The primary end point of infarct size was evaluated by the trapezoidal rule (Press W H, Teukolsky S A, Vetterling W T, Flannery B P. Numerical Recipes. Cambridge, UK: Cambridge University Press, 1994:127-133.) using serial CK-MB enzyme measures performed at baseline and every 6 hours for 24 hours beginning immediately before initiation of PCI. The occurrence of myocardial ischemia within 24 hours after PCI was assessed as a secondary end point using continuous 12-lead electrocardiographic monitoring (Northeast Monitoring, Boston, Mass.). Evidence of periprocedural ischemia was defined as ST-segment depression of >100 μV within a 60-minute period of PCI, lasting ≧1 minute and separated from other episodes by 1 minute. Area under the curve ST-segment deviation was measured from the onset of the first to the last contrast injection. All cardiac markers and ST-segment monitoring data were analyzed by core laboratories blinded to treatment assignment (University of Maryland School of Medicine, Baltimore, Md.; Duke Ischemia Monitoring Laboratory, Durham, N.C.). Additional prespecified secondary end points included the 30-day composite and individual event rates of death; nonfatal infarction; new or worsening heart failure, or recurrent ischemia in addition to net clinical safety, which was defined as the absence of major adverse ischemic events; Thrombolysis In Myocardial Infarction (TIMI) major bleeding; and liver function or coagulation test abnormalities. Acute myocardial infarction (AMI) was defined as CK-MB elevation ≧3 times the upper limit of normal (upper limit of normal 7 ng/ml) and/or troponin T levels […] the upper limit of normal (upper limit of normal 0.1 ng/ml). If previous troponin (or CKMB) values were above the upper limit of normal, values were required to be 50% of the baseline measurement in addition to ≧2 times (≧3 times for CK-MB) the upper limit of normal to meet the definition of AMI. Routine chemistries, complete blood count, and coagulation assays were performed at baseline, 7 days, and 30 days after randomization. […]

## Cc1ncc(COP(=O)(O)O)c(C=O)c1O [P5P, pyridoxal-5-phosphate]
CYP2C9
  Pyridoxal 5′-phosphate IC50: did not inhibit
[1]; metabolites CHC, 7-HC, 7-HFC, AHMC and quinolinol, 0.457 to 1000 μM tested
  concentration at which fluorescence of metabolites was significantly quenched: > 37 µM
[1]; up to 1000 μM, fluorescein is the CYP2C8 assay product
  effect on the fluorescence of fluorescein: did not affect
[2]; 60 patients in safety analyses
  safety issues related to treatment: No safety issues
[2]; 24 h continuous electrocardiographic ST-monitoring, median (interquartile range)
  Area under the curve ST deviation: 1349 (951-2,263), μV-min
[2]; 24 h continuous electrocardiographic ST-monitoring, percent of patients
  Any post-PCI ischemia: 14.7-34%
[2]; 30 days
  deaths: no deaths
[2]; 30 days, vs 10.0% with placebo, p=1.0
  occurrence of 30-day nonfatal AMI: 12.8%
[2]; 30 days, vs 15.0% with placebo, p=1.0
  30-day composite adverse event rate (death, nonfatal AMI, new and/or worsening heart failure, or recurrent ischemia): 17.9%
[2]; at 7 and 30 days, vs placebo
  abnormalities of routine chemistries or coagulation studies: no apparent differences
[2]; mean per therapy subgroup, with or without adjunctive statin
  CK-MB max (mean): 0.73 ng/mL
[2]; median (interquartile range)
  Time to peak CK-MB: 11.0 (0-18.0), 36 h
[2]; median (interquartile range), P5P 10 mg/kg oral before PCI, then 5 mg/kg twice daily
  Area under the curve CK-MB: 1.1 (0.5-2.4), 39 ng/ml
[2]; median (interquartile range), baseline to within 24 hours after PCI
  Change in troponin T: 0 (0 = 0.7), 36 ng/ml
[2]; median (interquartile range), enteric-coated P5P 10 mg/kg oral before PCI, then 5 mg/kg twice daily 14 days
  Periprocedural cardiac markers: 18.6 (10.2-34.5),
[2]; patients receiving P5P vs placebo
  maximum periprocedural CK-MB level: significantly lower
[2]; vs 10.00% placebo, p=0.26
  need for blood product transfusion: 2.5%
[2]; vs 10.5% placebo, p=0.27
  occurrence of major bleeding: 2.8%
[2]; vs 25.0% placebo, p=0.77
  patients who discontinued drug therapy before completion of the prescribed 2 weeks: 30.8%
[2]; vs 32.9 with placebo, p=0.038
  median periprocedural CK-MB area under the curve (periprocedural infarct size, primary end point): 18.6 ng/mL
